Source: paper PMC3199943, “Screening the MayBridge Rule of 3 Fragment Library for Compounds That Interact with the Trypanosoma brucei myo-Inositol-3-Phosphate Synthase and/or Show Trypanocidal Activity” (Molecular Biology International, 2011)
Where a name gives a salt, the structure may show the parent alone. Read-outs that look alike come from different tables or passages of the source.

Legend:
[1] = test system: HeLa cells; test: cells; details: for HeLa Cells Alamar Blue: Supplementary Table 1; for viability at 500 µM: 65 h
Method: (§1) Cytotoxic effects against HeLa and A549 cells were determined in a similar manner. Briefly, the cells were cultured in DMEM supplemented with 10% FCS and 2 mM L-Glutamine. Cells were plated at initial cell concentration of 2 × 10^4 cells/well and incubated with the compounds for ~65 hours prior to addition of Alamar Blue solution for a further 5 hours.

[2] = test system: A549 cells; test: Cytotoxicity against A549 cells, Alamar Blue; type: cell-based; details: Supplementary Table 1, compound 0.5 mM, percentage of controls (n=1); for viability at 500 µM: Homo sapiens, A549, 65 h
Method: as §1

[3] = compound 0.5 mM, percentage of controls, mean ± SD (n=3) or SE (n=2)
[4] = Homo sapiens, HeLa, read-out: HeLa Cells Alamar Blue
[5] = Homo sapiens, HeLa, read-out: HeLa Cells Alamar Blue, Supplementary Table 1, compound 0.5 mM, percentage of controls, mean ± SD (n=3) or SE (n=2)

SMILES | viability at 500 µM [1, 4] | viability at 500 µM [2] | also measured
CC1(C)Cc2cccc(CO)c2O1 [compound 434, (2,2‐dimethyl‐2,3‐dihydro‐1‐benzofuran‐7‐yl)methanol] |  |  | HeLa Cells Alamar Blue [1, 3]: 80.2 ± 12 percentage of controls; A549 Cells Alamar Blue [2]: 51.1 percentage of controls
Cn1nc(O)cc1C(F)(F)F [compound 316, 1‐methyl‐5‐(trifluoromethyl)‐1H‐pyrazol‐3‐ol] |  |  | HeLa Cells Alamar Blue [1, 3]: 111.8 ± 17.2 percentage of controls; A549 Cells Alamar Blue [2]: 95.3 percentage of controls
O=C(O)Cc1ccc(Cl)c(Cl)c1 [compound 659, 2‐(3,4‐dichlorophenyl)acetic acid] | 74 ± 17.1% | 106% | 
CCOC(=O)C1CCNCC1 [compound 245, ethyl piperidine‐4‐carboxylate] | 97.8 ± 3.2% | 99% | 
NCC1COc2ccccc2O1 (stereo not shown) [compound 309, 2,3‐dihydro‐1,4‐benzodioxin‐2‐ylmethylamine] |  |  | HeLa Cells Alamar Blue [1, 3]: 12.3 ± 8.8 percentage of controls; A549 Cells Alamar Blue [2]: 68.9 percentage of controls
Cn1ccc2cc(N)ccc21 [compound 158, 1‐methyl‐1H‐indol‐5‐amine] | 12.5 ± 9.1% | 59.3% | 
Oc1ccc(SC(F)(F)F)cc1 [compound 584, 4‐[(trifluoromethyl)thio]phenol] | 97.5 ± 15.9% | 68.4% | 
OCc1ccc(-n2ccnc2)cc1 [compound 386, [4‐(1H‐imidazol‐1‐yl)phenyl]methanol] | 103 ± 15.3% | 101% | 
OCc1cccc(-c2cncnc2)c1 [compound 504, (3‐pyrimidin‐5‐ylphenyl)methanol] | 88.7 ± 9.9% | 88.2% | 
CC1(C)CC(=O)CC(C)(C)N1 [compound 228, 2,2,6,6‐tetramethyltetrahydro‐4(1H)‐pyridinone] |  |  | HeLa Cells Alamar Blue [1, 3]: 101.3 ± 5.4 percentage of controls; A549 Cells Alamar Blue [2]: 61.9 percentage of controls
Cc1onc(-c2ccccc2)c1N [compound 384, 5‐methyl‐3‐phenyl‐4‐isoxazolamine] | 80.8 ± 13.4% | 75.5% | 
Cc1cccc2cc[nH]c12 [compound 95, 7‐methyl‐1H‐indole] | 11.9 ± 8.8% | 13.4% | 
COC(=O)Cc1cccc(OC)c1 [compound 451, methyl 2‐(3‐methoxyphenyl)acetate] | 101 ± 9.6% | 93.2% | 
Cn1ccc2ccc(CO)cc21 [compound 278, (1‐methyl‐1H‐indol‐6‐yl)methanol] | 18.2 ± 10.4% | 47.8% | 
c1ccc(-c2cc[nH]n2)cc1 [compound 150, 3‐phenyl‐1H‐pyrazole] | 74.6 ± 17.7% | 82% | 
NCc1ccc2occc2c1 [compound 165, 1‐benzofuran‐5‐ylmethylamine] | 92.6 ± 8.6% | 90.7% | 
Nc1ncccc1OCc1ccccc1 [compound 624, 3‐(benzyloxy)pyridin‐2‐amine] |  | 82.7% | viability at 500 µM [1, 5]: 72.9 ± 14.8%
Nc1cccc(-c2cccnc2)c1 [compound 346, 3‐pyridin‐3‐ylaniline] | 73.9 ± 6.1% | 98.5% | 
NCc1ccc2sccc2c1 [compound 294, 1‐benzothiophen‐5‐ylmethylamine] | 98.5 ± 13.1% | 70.6% | 
ON=C1CN2CCC1CC2 [compound 416, quinuclidin‐3‐one oxime hydrochloride] | 107 ± 9.6% | 109% | 
COC(=O)C1Cc2ccccc2N1 (stereo not shown) [compound 422, methyl 2‐indolinecarboxylate] | 11.1 ± 5.7% | 40.1% | 
OCc1scc2c1OCCO2 [compound 361, 2,3‐dihydrothieno[3,4‐b][1,4]dioxin‐5‐ylmethanol] |  |  | HeLa Cells Alamar Blue [1, 3]: 68.5 ± 12.9 percentage of controls; A549 Cells Alamar Blue [2]: 93.7 percentage of controls
O=C(O)c1ccc(-n2cccc2)cc1 [compound 512, 4‐(1H‐pyrrol‐1‐yl)benzoic acid] | 97.5 ± 13.1% | 63.2% | 
CC(=O)c1cc2cc(Cl)ccc2o1 [compound 589, 1‐(5‐chlorobenzo[b]furan‐2‐yl)ethan‐1‐one] |  |  | HeLa Cells Alamar Blue [1, 3]: 95.8 ± 12.5 percentage of controls; A549 Cells Alamar Blue [2]: 99.5 percentage of controls
O=C(O)c1ccncc1 [compound 60, isonicotinic acid] | 98.3 ± 12.5% | 118% | 
OCc1ccc(-c2ccccc2)nc1 [compound 492, (6‐phenyl‐3‐pyridinyl)methanol] | 78.6 ± 15.6% | 81.3% | 

SMILES | viability at 500 µM [1, 4] | viability at 500 µM [2] | also measured
Cc1ccc(-c2cnco2)cc1 [compound 259, 5‐(4‐methylphenyl)‐1,3‐oxazole] | 88.4 ± 2.5% | 88.1% | 
Cc1ccc2oc(=O)ccc2c1 [compound 265, 6‐methyl‐2H‐chromen‐2‐one] | 95.8 ± 17.2% | 63.8% | 
CN1CCN(c2ccc(N)cc2)CC1 [compound 562, 4‐(4‐methylpiperazino)aniline] | 8.2 ± 6.5% | 17.5% | 
OCc1ccnc(N2CCCC2)c1 [compound 438, (2‐pyrrolidin‐1‐ylpyrid‐4‐yl)methanol] | 103 ± 14.9% | 71.9% | 
CC(C)(C)C(=O)Nc1ccncc1 [compound 439, 2,2‐dimethyl‐N‐(4‐pyridinyl)propanamide] | 54.6 ± 4.5% | 65% | 
Cn1nc(-c2ccccc2)cc1CO [compound 524, (1‐methyl‐3‐phenyl‐1H‐pyrazol‐5‐yl)methanol] |  |  | HeLa Cells Alamar Blue [1, 3]: 88.2 ± 10.3 percentage of controls; A549 Cells Alamar Blue [2]: 60.7 percentage of controls
CC12CC(=O)CC1(C)CC(=O)C2 (stereo not shown) [compound 324, 3a,6a‐dimethylperhydropentalene‐2,5‐dione] |  |  | HeLa Cells Alamar Blue [1, 3]: 103.2 ± 21.9 percentage of controls; A549 Cells Alamar Blue [2]: 94.2 percentage of controls
CC12CCC(O)(CC1)CC2=O [compound 222, 4‐hydroxy‐1‐methylbicyclo[2.2.2]octan‐2‐one] |  |  | HeLa Cells Alamar Blue [1, 3]: 101.8 ± 5.9 percentage of controls; A549 Cells Alamar Blue [2]: 82.3 percentage of controls
OCc1cc(-c2cccs2)[nH]n1 [compound 459, (5‐thien‐2‐yl‐1H‐pyrazol‐3‐yl)methanol] | 27.8 ± 10.9% | 85% | 
O=C(O)C1CCCNC1 (stereo not shown) [compound 91, 3-piperidinecarboxylic acid] |  | 103% | viability at 500 µM ([1]; Homo sapiens, HeLa, read-out: HeLa Cells Alamar Blue (% survival), compound 0.5 mM, percentage of controls): 76.6 ± 29.1%; viability at 500 µM [1, 5]: 76.6 ± 29.1%
CNCc1ccc(OC)cc1 [compound 199, N‐(4‐methoxybenzyl)‐N‐methylamine] | 95.1 ± 15.3% | 71% | 
Nc1nc(-c2ccc(O)cc2)cs1 [compound 565, 4‐(2‐amino‐1,3‐thiazol‐4‐yl)phenol] |  | 61.6% | viability at 500 µM [1, 5]: 57.7 ± 17.7%
OCC1Cc2ccccc2O1 (stereo not shown) [compound 187, 2,3‐dihydro‐1‐benzofuran‐2‐ylmethanol] | 94.3 ± 13.3% | 50.5% | 
Oc1ccccc1N1CCOCC1 [compound 448, 2‐morpholinophenol] | 93.3 ± 6.7% | 71.1% | 
Cc1nn(-c2ccccc2)c(C)c1CO [compound 636, (3,5‐dimethyl‐1‐phenyl‐1H‐pyrazol‐4‐yl)methanol] |  |  | HeLa Cells Alamar Blue [1, 3]: 73 ± 13.4 percentage of controls; A549 Cells Alamar Blue [2]: 94.9 percentage of controls
Cc1cc(C)on1 [compound 4, 3,5‐dimethylisoxazole] | 108 ± 5.3% | 123% | 
Nc1cccc(COc2ccccc2)c1 [compound 616, 3‐(phenoxymethyl)aniline] | 80.5 ± 17.9% | 57.5% | 
OCc1ccc(CN2CCCCC2)cc1 [compound 669, [4‐(piperidin‐1‐ylmethyl)phenyl]methanol] | 93.2 ± 12.6% | 121% | 
O=C(O)CC12CC3CC(CC(C3)C1)C2 [compound 588, 2‐(1‐adamantyl)acetic acid] | 95.4 ± 14.1% | 85.4% | 
CNCc1nn(C)c2ccccc12 [compound 401, N‐methyl‐N‐[(1‐methyl‐1H‐indazol‐3‐yl)methyl]amine] |  |  | HeLa Cells Alamar Blue [1, 3]: 92.5 ± 7.4 percentage of controls; A549 Cells Alamar Blue [2]: 91.7 percentage of controls
Nc1cc(F)c(Cl)cc1N [compound 269, 4-chloro-5-fluorobenzene-1,2-diamine] | 23.4 ± 14.8% | 50.4% | CC50 ([1]; Homo sapiens, HeLa, read-out: HeLa ED50): 431 ± 53 µM
COC(=O)c1scc(C)c1Cl [compound 551, methyl 3‐chloro‐4‐methylthiophene‐2‐carboxylate] |  |  | HeLa Cells Alamar Blue [1, 3]: 90.7 ± 10.3 percentage of controls; A549 Cells Alamar Blue [2]: 104.9 percentage of controls
Cc1oc(-c2ccccc2)nc1CCO [compound 643, 2‐(5‐methyl‐2‐phenyl‐1,3‐oxazol‐4‐yl)ethan‐1‐ol] |  |  | HeLa Cells Alamar Blue [1, 3]: 45.5 ± 7.7 percentage of controls; A549 Cells Alamar Blue [2]: 104.4 percentage of controls
c1ccc(Cn2cccc2)nc1 [compound 249, 2‐(1H‐pyrrol‐1‐ylmethyl)pyridine] | 93.1 ± 19.9% | 83.6% | 
Cn1nc(CO)c2ccccc21 [compound 286, (1‐methyl‐1H‐indazol‐3‐yl)methanol] | 90.9 ± 3.1% | 73.2% | 
OCc1ccc(Oc2ccccn2)cc1 [compound 629, [4‐(pyrid‐2‐yloxy)phenyl]methanol] | 84.1 ± 9.9% | 96.1% | 
